Measured values as given in PMC8160793, “Potent Antimicrobial and Antibiofilm Activities of Feleucin-K3 Analogs Modified by α-(4-Pentenyl)-Ala against Multidrug-Resistant Bacteria” (Biomolecules, 2021).
In brackets after ≈: the same amount, converted by molar mass. Square brackets hold non-standard residues; d marks the D form. Peptide text beside a SMILES is read from it. ξ: configuration not given here. ξαMeGly(pent-4-enyl) = C=CCCCC(C)(N)C(=O)O

Legend:
S. aureus ATCC 25923 = assay type: cell-based, Staphylococcus aureus; details: ATCC 25923, 18 h
Description: (§1) The minimum inhibitory concentration (MIC) of the Feleucin-K3 analogs was tested by the broth microdilution method. Sensitive bacteria and drug-resistant bacteria were diluted to 1 × 10^6 CFU/mL, according to the McFarland standards. Bacterial suspension and peptide solutions (8–128 μg/mL) were incubated at 37 °C for 18 h. The minimum concentration without obvious bacterial growth was the MIC of the peptides. The stability of the analogs in a physiological salt environment was also investigated. In brief, salt powder (450-mM NaCl) was dissolved in deionized water, and the following investigational steps were the same as those described before. The above steps were repeated several times, until the same value was obtained three times.

E. coli ATCC 25922 = assay type: cell-based; details: ATCC 25922, 18 h
Description: as §1

A. baumannii ATCC 19606 = assay type: cell-based, Acinetobacter baumannii; details: ATCC 19606, 18 h
Description: as §1

P. aeruginosa ATCC 27853 = assay type: cell-based, Pseudomonas aeruginosa; details: ATCC 27853, 18 h
Description: as §1

MRSA 936 = assay type: cell-based, Staphylococcus aureus; details: 936, 18 h
Description: as §1

MRSA 71 = assay type: cell-based, Staphylococcus aureus; details: 71, 18 h
Description: as §1

MRSA 48 = assay type: cell-based, Staphylococcus aureus; details: 48, 18 h
Description: as §1

MRSA 75 = assay type: cell-based, Staphylococcus aureus; details: 75, 18 h
Description: as §1

MRSA 74 = assay type: cell-based, Staphylococcus aureus; details: 74, 18 h
Description: as §1

MRSA 51 = assay type: cell-based, Staphylococcus aureus; details: 51, 18 h
Description: as §1

S. aureus 794 = assay type: cell-based, Staphylococcus aureus; details: 794, 18 h
Description: as §1

MRSA 52 = assay type: cell-based, Staphylococcus aureus; details: 52, 18 h
Description: as §1

MRSA 113 = assay type: cell-based, Staphylococcus aureus; details: 113, 18 h
Description: as §1

MRSA 23 = assay type: cell-based, Staphylococcus aureus; details: 23, 18 h
Description: as §1

S. aureus 725 = assay type: cell-based, Staphylococcus aureus; details: 725, 18 h
Description: as §1

MRSA 54 = assay type: cell-based, Staphylococcus aureus; details: 54, 18 h
Description: as §1

MRSA ATCC 33591 = assay type: cell-based, Staphylococcus aureus; details: ATCC 33591, 18 h
Description: as §1

A. baumannii 9331 = assay type: cell-based, Acinetobacter baumannii; details: 9331, 18 h
Description: as §1

A. baumannii 91810 = assay type: cell-based, Acinetobacter baumannii; details: 91810, 18 h
Description: as §1

A. baumannii 822144 = assay type: cell-based, Acinetobacter baumannii; details: 822144, 18 h
Description: as §1

A. baumannii 9840 = assay type: cell-based, Acinetobacter baumannii; details: 9840, 18 h
Description: as §1

A. baumannii 9336 = assay type: cell-based, Acinetobacter baumannii; details: 9336, 18 h
Description: as §1

A. baumannii 51243 = assay type: cell-based, Acinetobacter baumannii; details: 51243, 18 h
Description: as §1

A. baumannii 91152 = assay type: cell-based, Acinetobacter baumannii; details: 91152, 18 h
Description: as §1

A. baumannii 9896 = assay type: cell-based, Acinetobacter baumannii; details: 9896, 18 h
Description: as §1

A. baumannii 97830 = assay type: cell-based, Acinetobacter baumannii; details: 97830, 18 h
Description: as §1

A. baumannii 91105 = assay type: cell-based, Acinetobacter baumannii; details: 91105, 18 h
Description: as §1

A. baumannii 91199 = assay type: cell-based, Acinetobacter baumannii; details: 91199, 18 h
Description: as §1

A. baumannii 92359 = assay type: cell-based, Acinetobacter baumannii; details: 92359, 18 h
Description: as §1

A. baumannii 91944 = assay type: cell-based, Acinetobacter baumannii; details: 91944, 18 h
Description: as §1

A. baumannii 5444 = assay type: cell-based, Acinetobacter baumannii; details: 5444, 18 h
Description: as §1

A. baumannii 91869 = assay type: cell-based, Acinetobacter baumannii; details: 91869, 18 h
Description: as §1

A. baumannii 9828 = assay type: cell-based, Acinetobacter baumannii; details: 9828, 18 h
Description: as §1

A. baumannii 9234 = assay type: cell-based, Acinetobacter baumannii; details: 9234, 18 h
Description: as §1

A. baumannii 98110 = assay type: cell-based, Acinetobacter baumannii; details: 98110, 18 h
Description: as §1

A. baumannii 8309 = assay type: cell-based, Acinetobacter baumannii; details: 8309, 18 h
Description: as §1

A. baumannii 9236 = assay type: cell-based, Acinetobacter baumannii; details: 9236, 18 h
Description: as §1

SMILES	MIC, S. aureus ATCC 25923 (S. aureus ATCC 25923) [µg/mL]	MIC, E. coli ATCC 25922 (E. coli ATCC 25922) [µg/mL]	MIC, A. baumannii ATCC 19606 (A. baumannii ATCC 19606) [µg/mL]	MIC, P. aeruginosa ATCC 27853 (P. aeruginosa ATCC 27853) [µg/mL]	MIC, MRSA 936 (MRSA 936) [µg/mL]	MIC, MRSA 71 (MRSA 71) [µg/mL]	MIC, MRSA 48 (MRSA 48) [µg/mL]	MIC, MRSA 75 (MRSA 75) [µg/mL]	MIC, MRSA 74 (MRSA 74) [µg/mL]	MIC, MRSA 51 (MRSA 51) [µg/mL]	MIC, S. aureus 794 (S. aureus 794) [µg/mL]	MIC, MRSA 52 (MRSA 52) [µg/mL]	MIC, MRSA 113 (MRSA 113) [µg/mL]	MIC, MRSA 23 (MRSA 23) [µg/mL]	MIC, S. aureus 725 (S. aureus 725) [µg/mL]	MIC, MRSA 54 (MRSA 54) [µg/mL]	MIC, MRSA ATCC 33591 (MRSA ATCC 33591) [µg/mL]	MIC, A. baumannii 9331 (A. baumannii 9331) [µg/mL]	MIC, A. baumannii 91810 (A. baumannii 91810) [µg/mL]	MIC, A. baumannii 822144 (A. baumannii 822144) [µg/mL]	further results
C=CCCCC(C)(N)C(=O)N[C@@H](CC(C)C)C(=O)N[C@@H](CCCCN)C(=O)N[C@@H](C)C(=O)N[C@@H](CCCCN)C(=O)N[C@@H](CCCCN)C(=O)N[C@@H](CC(C)C)C(=O)N[C@@H](CC(C)C)C(N)=O (stereo partly drawn) [Feleucin-K66] (H-[ξαMeGly(pent-4-enyl)]LKAKKLL-NH2)	>128	>128	>128	>128	–	–	–	–	–	–	–	–	–	–	–	–	–	–	–	–	–
C=CCCCC(C)(NC(=O)[C@@H](N)Cc1ccccc1)C(=O)N[C@@H](CCCCN)C(=O)N[C@@H](CC(C)C)C(=O)N[C@@H](CC(C)C)C(=O)N[C@@H](CCCCN)C(=O)N[C@@H](CCCCN)C(=O)N[C@@H](CC(C)C)C(=O)N[C@@H](CC(C)C)C(N)=O (stereo partly drawn) [Feleucin-K67] (H-F[ξαMeGly(pent-4-enyl)]KLLKKLL-NH2)	4 (≈ 3.51 µM)	8 (≈ 7.01 µM)	4 (≈ 3.51 µM)	8 (≈ 7.01 µM)	4 (≈ 3.51 µM)	4 (≈ 3.51 µM)	4 (≈ 3.51 µM)	4 (≈ 3.51 µM)	4 (≈ 3.51 µM)	4 (≈ 3.51 µM)	8 (≈ 7.01 µM)	4 (≈ 3.51 µM)	4 (≈ 3.51 µM)	4 (≈ 3.51 µM)	4 (≈ 3.51 µM)	4 (≈ 3.51 µM)	4 (≈ 3.51 µM)	8 (≈ 7.01 µM)	4 (≈ 3.51 µM)	4 (≈ 3.51 µM)	MIC, A. baumannii 9840 (A. baumannii 9840): 4 µg/mL (≈ 3.51 µM); MIC, A. baumannii 9336 (A. baumannii 9336): 4 µg/mL (≈ 3.51 µM); MIC, A. baumannii 51243 (A. baumannii 51243): 4 µg/mL (≈ 3.51 µM); MIC, A. baumannii 91152 (A. baumannii 91152): 4 µg/mL (≈ 3.51 µM); MIC, A. baumannii 9896 (A. baumannii 9896): 4 µg/mL (≈ 3.51 µM); MIC, A. baumannii 97830 (A. baumannii 97830): 4 µg/mL (≈ 3.51 µM); MIC, A. baumannii 91105 (A. baumannii 91105): 4 µg/mL (≈ 3.51 µM); MIC, A. baumannii 91199 (A. baumannii 91199): 4 µg/mL (≈ 3.51 µM); MIC, A. baumannii 92359 (A. baumannii 92359): 4 µg/mL (≈ 3.51 µM); MIC, A. baumannii 91944 (A. baumannii 91944): 4 µg/mL (≈ 3.51 µM); MIC, A. baumannii 5444 (A. baumannii 5444): 4 µg/mL (≈ 3.51 µM); MIC, A. baumannii 91869 (A. baumannii 91869): 4 µg/mL (≈ 3.51 µM); MIC, A. baumannii 9828 (A. baumannii 9828): 4 µg/mL (≈ 3.51 µM); MIC, A. baumannii 9234 (A. baumannii 9234): 4 µg/mL (≈ 3.51 µM); MIC, A. baumannii 98110 (A. baumannii 98110): 4 µg/mL (≈ 3.51 µM); MIC, A. baumannii 8309 (A. baumannii 8309): 4 µg/mL (≈ 3.51 µM); MIC, A. baumannii 9236 (A. baumannii 9236): 4 µg/mL (≈ 3.51 µM)
C=CCCCC(C)(NC(=O)[C@H](CC(C)C)NC(=O)[C@H](CCCCN)NC(=O)[C@H](CC(C)C)NC(=O)[C@@H](N)Cc1ccccc1)C(=O)N[C@@H](CCCCN)C(=O)N[C@@H](CCCCN)C(=O)N[C@@H](CC(C)C)C(=O)N[C@@H](CC(C)C)C(N)=O (stereo partly drawn) [Feleucin-K68] (H-FLKL[ξαMeGly(pent-4-enyl)]KKLL-NH2)	4 (≈ 3.51 µM)	8 (≈ 7.01 µM)	4 (≈ 3.51 µM)	8 (≈ 7.01 µM)	4 (≈ 3.51 µM)	8 (≈ 7.01 µM)	4 (≈ 3.51 µM)	4 (≈ 3.51 µM)	4 (≈ 3.51 µM)	4 (≈ 3.51 µM)	8 (≈ 7.01 µM)	8 (≈ 7.01 µM)	4 (≈ 3.51 µM)	4 (≈ 3.51 µM)	4 (≈ 3.51 µM)	4 (≈ 3.51 µM)	4 (≈ 3.51 µM)	8 (≈ 7.01 µM)	4 (≈ 3.51 µM)	4 (≈ 3.51 µM)	MIC, A. baumannii 9840 (A. baumannii 9840): 4 µg/mL (≈ 3.51 µM); MIC, A. baumannii 9336 (A. baumannii 9336): 4 µg/mL (≈ 3.51 µM); MIC, A. baumannii 51243 (A. baumannii 51243): 4 µg/mL (≈ 3.51 µM); MIC, A. baumannii 91152 (A. baumannii 91152): 4 µg/mL (≈ 3.51 µM); MIC, A. baumannii 9896 (A. baumannii 9896): 4 µg/mL (≈ 3.51 µM); MIC, A. baumannii 97830 (A. baumannii 97830): 4 µg/mL (≈ 3.51 µM); MIC, A. baumannii 91105 (A. baumannii 91105): 4 µg/mL (≈ 3.51 µM); MIC, A. baumannii 91199 (A. baumannii 91199): 4 µg/mL (≈ 3.51 µM); MIC, A. baumannii 92359 (A. baumannii 92359): 4 µg/mL (≈ 3.51 µM); MIC, A. baumannii 91944 (A. baumannii 91944): 4 µg/mL (≈ 3.51 µM); MIC, A. baumannii 5444 (A. baumannii 5444): 4 µg/mL (≈ 3.51 µM); MIC, A. baumannii 91869 (A. baumannii 91869): 4 µg/mL (≈ 3.51 µM); MIC, A. baumannii 9828 (A. baumannii 9828): 4 µg/mL (≈ 3.51 µM); MIC, A. baumannii 9234 (A. baumannii 9234): 4 µg/mL (≈ 3.51 µM); MIC, A. baumannii 98110 (A. baumannii 98110): 4 µg/mL (≈ 3.51 µM); MIC, A. baumannii 8309 (A. baumannii 8309): 4 µg/mL (≈ 3.51 µM); MIC, A. baumannii 9236 (A. baumannii 9236): 4 µg/mL (≈ 3.51 µM)
